Assay results published in patent publication US20030040490A1, “Drugs containing combined active ingredients” (priority 2000, published 2003).

Columns and labels:
[1] = test system: Sprague-Dawley rats (SD rats); assay: oral sucrose loading test, voglibose and nateglinide (Example 2); type: in vivo, rat; conditions: 2.5 g/kg sucrose load, 0-120 min, average ± standard deviation
Protocol: An effect of the combined use of the α-glucosidase inhibitor (voglibose) and non-sulfonylurea insulin secretagogue (nateglinide) was examined in an oral sucrose loading test using Sprague-Dawley rats (SD rats). SD rats (7-week-old, male) were divided into 6 groups (6 rats per group) to give 1) a control group (distilled water administration), 2) a voglibose 0.1 mg/kg administration group, 3) a nateglinide 10 or 30 mg/kg administration group, and 4) a voglibose 0.1 mg/kg and nateglinide 10 or 30 mg/kg combined administration group. After fasting overnight, every rat was given the above-mentioned drugs by single or combined oral administration, and successively given 2.5 g/kg sucrose solution by oral administration. […] The plasma glucose level was measured by an enzymatic method using an L type Wako Glu2 (Wako Pure Chemical Industries, Ltd.). Increase in the plasma glucose area was calculated by a trapezoid method (Odaka et al., J. Nutr. Sci. Vitaminol., vol. 38, p. 37 (1992) using the plasma glucose level at each time point. The results are shown in Table 1.

[2] = test system: Sprague-Dawley rats (SD rats); assay: oral sucrose loading test, voglibose and repaglinide (Example 3); type: in vivo, rat; conditions: repaglinide 0.05 mg/kg oral, 2.5 g/kg sucrose load, 0-60 min, average ± standard deviation
Protocol: An effect of the combined use of the α-glucosidase inhibitor (voglibose) and the non-sulfonylurea insulin secretagogue (repaglinide) was examined in an oral sucrose loading test using Sprague-Dawley rats (SD rats).
SD rats (10-week-old, male) were divided into 4 groups (6 rats per group) to give 1) a control group (distilled water administration), 2) a repaglinide 0.05 mg/kg administration group, and 3) a voglibose 0.1 mg/kg and repaglinide 0.05 mg/kg combined administration group. After fasting overnight, every rat was given the above-mentioned drugs by single or combined oral administration, and successively given 2.5 g/kg of a sucrose solution by oral administration. The blood was drawn from the rat tail vein before administration of the sucrose solution and 15, 30 and 60 min after the administration, and the plasma glucose level was measured. The plasma glucose level was measured by an enzymatic method using an L type Wako Glu2 (Wako Pure Chemical Industries, Ltd.), and the plasma insulin level was measured by radio immunoassay using Insulotech-Mochida (Mochida Pharmaceutical Co., Ltd.).
Increase in the plasma glucose and plasma insulin areas was calculated by a trapezoid method (Odaka et al., J. Nutr. Sci. Vitaminol., vol. 38, p. 37 (1992)) using the plasma glucose and plasma insulin levels at each time point.

In the case of OCC(CO)N[C@H]1C[C@](O)(CO)[C@@H](O)[C@H](O)[C@H]1O [voglibose], the “Increase in plasma glucose area” value ([1]; voglibose 0.1 mg/kg oral) is reported as 30 ± 10 mg·h/dL.

CC(C)[C@H]1CC[C@H](C(=O)N[C@H](Cc2ccccc2)C(=O)O)CC1 [nateglinide] was tested, and the “Increase in plasma glucose area” value ([1]; nateglinide 10 mg/kg oral) was 65 ± 28 mg·h/dL and the “Increase in plasma glucose area” value ([1]; nateglinide 30 mg/kg oral) was 54 ± 15 mg·h/dL.

With CCOc1cc(CC(=O)N[C@@H](CC(C)C)c2ccccc2N2CCCCC2)ccc1C(=O)O [repaglinide] the “Increase in plasma glucose area” value [2] was 6 ± 13 mg·h/dL and the “Increase in plasma insulin area” value [2] was 432 ± 117 μU · h/ml.
